Reference: patent US12698534B2, “Systems and methods for characterizing and treating disease” (Arizona Board of Regents on Behalf of the University of …, priority 2019, dated 2026)

How the values were obtained:
L1-ORF1p = L1-ORF1p expression by immunoblotting in lung cells treated with NCL antagonists; type: cell-based, human
Method: Cell lines were purchased from the American Type Culture Collection (ATCC). Cells were grown in a humidified environment at 37° C. with 5% CO2. Cell lines were confirmed to be free of mycoplasma contamination (MycoAlert; Lonza). NSCLC cell lines (NCI-H460, NCI-H520, NCI-H1299, and A549) were grown in RPMI medium supplemented with fetal bovine serum at a concentration of 10%, […] penicillin and […] streptomycin (Life Technologies). The human bronchial epithelial cell lines BEAS-2B and BZR were grown in LHC-9 medium (Thermo Fisher Scientific). Verification of all cell line identities was performed by short tandem repeat (STR) sequencing using reference databases from ATCC (Genetics Core, University of Arizona, AZ). […] All protein concentrations were determined using the bicinchoninic acid assay (Thermo Fisher Scientific).
Total cell lysates were resolved by SDS-polyacrylamide gel electrophoresis and electrotransferred onto polyvinylidene fluoride membranes (Millipore) in Tris-glycine buffer containing 20% methanol. Proteins were detected by immunoblotting. […]

[1] = tested on: ORFeus^LSL transgene (human LINE-1); test: ORFeus LINE-1 mRNA by RT-qPCR in mouse tissues; type: in vivo, mice
Method: (§1) A BioLite Intubation System (Braintree Scientific Inc, USA) was used for intratracheal instillation of ORFeus^LSL mice (29-38 g) anesthetized with ketamine and xylazine (100 mg/kg and 10 mg/kg, respectively). All mice were genotyped to confirm genetic identity. Control mice were given one dose of 5×10^10 PFU adenoCRE recombinase dissolved in H2O or DMSO. […] Mice were sacrificed by cervical dislocation after euthanasia with CO2 one-week after treatment. Tissues were collected and stored at 4° C. in RNA later (Thermo Fisher Scientific, CA).
RNA was extracted using the RNeasy Plus Mini Kit (Qiagen, MD). An aliquot of 250 ng RNA was reverse transcribed into first-strand cDNA using SuperScript® III (Invitrogen, CA). RT-qPCR was carried out for LINE-1 and nine genes within its oncogenic regulatory network. […] GAPDH was used as a control. Each reaction included 4.0 μL of cDNA, 0.5 μL of gene-specific primer pairs, and 5.0 μL SyberGreen dye and ddH2O to a final volume of 20 μL. Amplifications were completed using StepOnePlus™ RT-qPCR System and fold changes calculated using 2^−ΔΔct.

LINE-1 DNA = LINE-1 DNA copies in cells and exosomes by absolute qPCR; type: cell-based, Human; settings: for exosome LINE-1 DNA copies released per cell, mean (±SE): H460 exosomes
Source text: (§2) Human 460 large cell lung carcinoma cells were authenticated by the UA tissue culture core facility and then cultured in RPMI media (Gibco) supplemented with 10% exosome-free FBS. One day before exposure, cells were counted, seeded, and allowed to attach overnight. Prior to each exposure, medium was removed and cells were washed with PBS to remove cellular debris and extracellular vesicles. After exposure, culture medium was harvested for exosome collection, cells were detached with trypsin-EDTA (Gibco), counted via hemocytometer, and cell viability was assessed using trypan blue exclusion.
(§3) Nucleic acids were extracted from cell and exosome pellets using the Quick DNA-RNA Miniprep Plus. RNA was subjected to an additional DNAseI digestion on-column (RNA from cells) or prior to reverse transcription (RNA from exosomes; Turbo DNA-free; Invitrogen). Following isolation DNA and RNA quantity and integrity were assessed using the Cytation X system. LINE-1 mRNA was detected in equal volumes of exosome RNA using OneStep RT-qPCR (NEB). To assess cellular LINE-1 mRNA levels, LINE-1 mRNA was normalized to B-Actin mRNA and expressed as a fold change from control using the Pfaffl technique. […] Briefly, the fluorescence units from the reverse transcription control (RTC; no reverse transcriptase enzyme) for each sample was subtracted from the complete sample amplification and the remaining fluorescence units were divided by cell number. The resulting values approximate the amount of LINE-1 or BActin mRNA present in exosomes that is also normalized by cell number. LINE-1 DNA copies were quantified using absolute qPCR quantification. Briefly, known copy numbers of plasmids bearing the LINE-1 sequence were used to create a standard curve, which could then be used to calculated copy number from samples. These copy numbers were then divided by cell number to yield the number of LINE-1 DNA copies per cell (cellular DNA) and the number of exosome LINE-1 DNA copies per cell (exosome DNA).

[2] = tested on: Human 460 large cell lung carcinoma cells; test: BaP exposure of H460 cells: cell count and trypan blue viability; type: cell-based; settings: for cell number at conclusion of exposure, mean (±SEM): 48 hour
Source text: as §2

LINE-1 = LINE-1 mRNA and ORF1p in extracellular vesicles of BaP-stimulated H460 cells; type: cell-based, human; settings: 48 h, various concentrations
Method: EV isolation: Media were centrifuged at 500×g for 5 min to remove cells and concentrated using a 100 kDa MWCO Amicon filter. Samples were then centrifuged at 25,000×g for 30 min to pellet apoptotic vesicles and cellular debris followed by ultracentrifugation at 100,000×g for 2 h. The EV pellet was washed in PBS and either re-centrifuged at 100,000×g or loaded onto an iodixanol gradient.
Total RNA was harvested (Zymo) and subjected to post-elution DNAse digestion. A cDNA was created using oligo d (T) primers. Gene expression analysis was performed via qPCR using probe-based detection. Expression was expressed as a fold change from the EV-free medium (EFM).

LINE-1 mRNA = LINE-1 mRNA and RNA in cells and exosomes by RT-qPCR; type: cell-based, Human; settings: H460 exosomes
Source text: as §2, §3

[3] = tested on: H460 large cell lung cancer cells; test: Exosome quantity and size by Nanosight NTA after BaP exposure; type: cell-based, Human; design: number of exosomes released per cell: dose or concentration left out as unconfirmed
Source text: as §2
Cell media was centrifuged at 500×g for 5 minutes to remove cells and large debris and then stored at −80° C. To isolate exosomes, cell medium was centrifuged at 25,000×g for 1.5 hours to remove apoptotic bodies and other large extracellular vesicles. To precipitate exosomes, polyethylene glycol (PEG) MW 6,000 was added to the supernatant to a final concentration of 10% (w/v), and centrifuged again at 15,000×g for 30 minutes. Each exosome pellet was resuspended in 2 mL PBS, which was then subdivided into fractions for Nanosight Nanoparticle Tracking Analysis (NTA), nucleic acid extraction, and protein extraction. Nucleic acids and proteins present outside of exosomes were enzymatically digested to prevent confounding of exosome cargo analysis. Exosome fractions designated for nucleic acid analysis were treated with DNAseI for 30 minutes at 37° C. and RNAseA for 5 minutes at RT and then supplemented with RNA Secure (Invitrogen) prior to lysis. Exosome fractions designated for protein analysis were treated with proteinaseK for 30 minutes at 37° C. Following enzymatic digestion, exosomes were pelleted a final time by addition of PEG 6,000 to 10%, and centrifugation at 15,000×g for 15 minutes. To assess exosome size and quantity, Nanosight NTA was performed. Each sample was read five times and the sample grand mean and standard error for each nanoparticle size bin were reported. Nanosight experiments were performed in technical duplicate. […]

[4] = tested on: Lung tissues in ORFeus^LSL mice; test: Lung histology and general toxicity after intratracheal instillation; type: in vivo
Method: as §1, with “DMSO. The optimal adenovirus dose was defined empirically as a dose that only modestly activated the transgene.” for “DMSO.”
Lung sections were snap-frozen in OCT. Tissues were fixed with cold acetone and stained with hematoxylin and eosin. Samples were evaluated blindly by two pathologists.

[5] = biological target: the molecule itself; test: Western blot of EV iodixanol gradient fractions (self-association)

In the case of “5′-GGTGGTGGTGGTTGTGGTGGTGGTGG-3′ (SEQ ID NO:2) (DNA, backbone not given here) [AS1411, oligodeoxynucleotide DNA aptamer targeting nucleolin]”, the L1-ORF1p protein expression (L1-ORF1p; NCI-H520 cells, high concentrations (20 μM)) is reported as “without effect” and the L1-ORF1p protein expression (L1-ORF1p; any of the cell lines (data not shown)) is reported as “without effect”.

In the case of c1ccc2c(c1)cc1ccc3cccc4ccc2c1c34 [BaP, benzo[a]pyrene], the “ORFeus LINE-1 mRNA expression in lung” value ([1]; male and female lungs, one week after treatment) is reported as “significantly increased expression of the transgene”, the “activation of the LINE-1 transgene in other tissues” value ([1]; stomach, heart, kidney, liver, intestine) is reported as “only stomach, but not heart, kidney, liver or intestine, showed activation of the LINE-1 transgene” and the “cellular LINE-1 DNA copies per cell” value (LINE-1 DNA; H460 cells) is reported as “did not significantly change”. For the same molecule, the “exosome LINE-1 DNA copies released per cell, mean (±SE)” value (LINE-1 DNA; 0.25 μM) was 61.04±31.3 copies, the “exosome LINE-1 DNA copies released per cell, mean (±SE)” value (LINE-1 DNA; 0.5 μM) was 62.43±28.98 copies and the “exosome LINE-1 DNA copies released per cell, mean (±SE)” value (LINE-1 DNA; 1 μM) was 85.96±51.21 copies. For the same molecule, the cell proliferation ([2]; 48 hour exposure) was “reduce cell proliferation in a dose-dependent manner”, the “cell number at conclusion of exposure, mean (±SEM)” value ([2]; 0.5 μM) was 14.0±2.3 million cells and the “cell number at conclusion of exposure, mean (±SEM)” value ([2]; 1 μM) was 11.1±1.9 million cells. The “EV LINE-1 levels versus cellular LINE-1 levels” value (LINE-1) was “mirrored within EVs”, the “exosome LINE-1 mRNA, Pfaffl method normalized to B-Actin mRNA” value (LINE-1 mRNA) was “did not observe significant increases” and the “LINE-1 mRNA export in exosomes per cell” value (LINE-1 mRNA; 0.25 μM) was “approximately two-fold”. The “LINE-1 mRNA export in exosomes per cell” value (LINE-1 mRNA; 0.5 μM) was “approximately two-fold”, the “LINE-1 mRNA export in exosomes per cell” value (LINE-1 mRNA; 1 μM) was “decreased export” and the “quantity of total exosome RNA” value (LINE-1 mRNA; 1 μM) was 83.26 ± 16.94 ng. For the same molecule, the “exosome B-Actin mRNA released per cell” value (LINE-1 mRNA; fluorescence units adjusted by cell number) was “dose-dependent increases”, the “size range in which more exosomes were produced” value ([3]; 0.25 μM) was 64.5 to 71.5 nM and the “size range in which more exosomes were produced” value ([3]; 1 μM) was 61.5 to 77.5 nM. For the same molecule, the “number of exosomes released per cell” value ([3]; particles 30-150 nm normalized to cell number) was “increased”, the “toxic effects in treated mice” value ([4]; ORFeus^LSL mice, at any time) was “No dramatic toxic effects” and the “lung histology: leukocytic infiltration” value ([4]; mouse, in vivo) was “significant leukocytic infiltration into the lungs”. For the same molecule, the “lung histology: vessel congestion and mononuclear cell infiltration” value ([4]; mouse, in vivo) was “pulmonary vessel congestion with focal-to-diffuse mononuclear cell infiltration into parenchyma”.

B1: human LINE-1 ORF1 protein (L1-ORF1p) (other, UniProt Q9UN81 1-338, looked up)
chain: MGKKQNRKTGNSKTQSASPPPKERSSSPATEQSWMENDFDELREEGFRRSNYSELREDIQTKGKEVENFEKNLEECITRITNTEKCLKELMELKTKARELREECRSLRSRCDQLEERVSAMEDEMNEMKREGKFREKRIKRNEQSLQEIWDYVKRPNLRLIGVPESDVENGTKLENTLQDIIQENFPNLARQANVQIQEIQRTPQRYSSRRATPRHIIVRFTKVEMKEKMLRAAREKGRVTLKGKPIRLTADLSAETLQARREWGPIFNILKEKNFQPRISYPAKLSFISEGEIKYFIDKQMLRDFVTTRPALKELLKEALNMERNNRYQPLQNHAKM
notes: Endogenous protein detected on Western blots of human cell lysates and EV extracts; Seen as a monomer, a dimer and higher multimers
B1: binds [5].
